Measurements taken from the supplement of paper PMC10307832.

Legend:
Test in all cases: relative viability (nuclei count vs DMSO), 5 days (fraction); higher = more cells survive
[1] = compound: Cn1cc(-c2cnn3c(N)c(Br)c([C@@H]4CCCNC4)nc23)cn1
In short: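 A plate was accepted only when its control CV was below 25% and the cells had doubled at least once. Viability is defined from nuclear counts as treated wells divided by vehicle wells, with the median taken across plates. That median covers lung cancer cell lines grown in 1536-well plates, dosed by pinning at five √10-spaced library-drug concentrations, and counted in MetaXpress from 4× Hoechst images after 5 days.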

[2] = compound: Cn1cc(-c2cnn3c(N)c(Br)c([C@@H]4CCCNC4)nc23)cn1 + CC(=O)c1c(C)c2cnc(Nc3ccc(N4CCNCC4)cn3)nc2n(C2CCCC2)c1=O [Palbociclib] (partner 0.5 µM)
In short: (§1)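 A single step with final 0.05% Triton X-100, 1% formaldehyde and 1 ug/ml Hoechst fixed the cells and stained nuclei 5 days after treatment. Lung cancer cell lines in 1536-well plates had been treated by pin tool the day after seeding with one drug alone or a fixed anchor-drug dose plus five library-drug doses (not always all listed) in √10 steps, and nuclei were counted on 4× images. Relative viability is the ratio of nuclei in treated wells to nuclei in vehicle wells, taken as the median of duplicate plates.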

[3] = compound: Cn1cc(-c2cnn3c(N)c(Br)c([C@@H]4CCCNC4)nc23)cn1 + COc1cc2c(Oc3ccc(NC(=O)C4(C(=O)Nc5ccc(F)cc5)CC4)cc3F)ccnc2cc1OCCCN1CCOCC1 [Foretinib] (partner 0.25 µM)
In short: as §1

[4] = compound: Cn1cc(-c2cnn3c(N)c(Br)c([C@@H]4CCCNC4)nc23)cn1 + COc1cccc2cc(-c3nc([C@H]4CC[C@H](C(=O)O)CC4)n4ncnc(N)c34)[nH]c12 [OSI-027] (partner 0.5 µM)
In short: as §1

Row | Cell Line | relative viability ([1]; 0.05 µM) | relative viability ([1]; 0.1581 µM) | relative viability ([1]; 0.5 µM) | relative viability ([1]; 1.581 µM) | relative viability ([1]; 5 µM) | relative viability ([2]; first compound 0.05 µM) | relative viability ([2]; first compound 0.1581 µM) | relative viability ([2]; first compound 0.5 µM) | relative viability ([2]; first compound 1.581 µM) | relative viability ([2]; first compound 5 µM) | relative viability ([3]; first compound 0.05 µM) | relative viability ([3]; first compound 0.1581 µM) | relative viability ([3]; first compound 0.5 µM) | relative viability ([3]; first compound 1.581 µM) | relative viability ([3]; first compound 5 µM) | relative viability ([4]; first compound 0.05 µM) | relative viability ([4]; first compound 0.1581 µM) | relative viability ([4]; first compound 0.5 µM) | relative viability ([4]; first compound 1.581 µM) | relative viability ([4]; first compound 5 µM)
1 | NCI-H322M | 0.766 | 0.842 | 0.863 | 0.684 | 0.408 | 0.424 | 0.458 | 0.452 | 0.463 | 0.393 | 0.91 | 0.62 | 0.854 | 0.563 | 0.297 | 0.46 | 0.356 | 0.466 | 0.354 | 0.242
2 | NCI-H358 | 0.988 | 1.1 | 0.877 | 0.771 | 0.749 | 0.151 | 0.134 | 0.128 | 0.104 | 0.111 | 0.685 | 0.768 | 0.654 | 0.59 | 0.628 | 0.808 | 0.787 | 0.56 | 0.616 | 0.743
3 | NCI-H441 | 1.28 | 1.26 | 1.15 | 0.862 | 1.31 | 0.191 | 0.189 | 0.199 | 0.172 | 0.193 | 0.99 | 1.38 | 1.13 | 0.957 | 0.725 | 0.614 | 0.814 | 0.821 | 0.565 | 0.609
4 | NCI-H460 | 0.946 | 1.1 | 0.993 | 0.952 | 0.811 | 0.227 | 0.144 | 0.0866 | 0.0886 | 0.0189 | 0.957 | 1.08 | 1.03 | 0.914 | 0.666 | 0.725 | 0.765 | 0.515 | 0.203 | 0.0935
5 | NCI-H520 | 0.897 | 0.998 | 0.899 | 0.904 | 0.717 | 0.266 | 0.232 | 0.231 | 0.199 | 0.172 | 0.671 | 0.836 | 0.751 | 0.664 | 0.58 | 0.214 | 0.215 | 0.269 | 0.265 | 0.288
6 | NCI-H647 | 0.937 | 1.07 | 0.972 | 0.769 | 0.417 | 0.378 | 0.47 | 0.423 | 0.228 | 0.107 | 1.17 | 1.27 | 1.25 | 1.01 | 0.416 | 0.66 | 0.718 | 0.612 | 0.588 | 0.479
7 | NCI-H650 | 0.994 | 0.875 | 1.03 | 0.844 | 0.715 | 0.372 | 0.357 | 0.36 | 0.313 | 0.324 | 1.14 | 1.03 | 1.02 | 1 | 0.881 | 0.571 | 0.503 | 0.54 | 0.476 | 0.485
8 | NCI-H661 | 1.01 | 0.977 | 1.03 | 1.01 | 0.772 | 0.395 | 0.371 | 0.387 | 0.389 | 0.344 | 1.05 | 0.991 | 0.979 | 1.02 | 0.932 | 0.711 | 0.789 | 0.718 | 0.513 | 0.511
